# According to ChEMBL document CHEMBL1139727, “A novel series of imidazo[1,2-a]pyridine derivatives as HIF-1alpha prolyl hydroxylase inhibitors” (Bioorg Med Chem Lett, 2006):
# Biological target: Egl nine homolog 1 (Homo sapiens, UniProt Q9GZT9)
# Assay: Inhibition of human EGLN1
# Chain of Egl nine homolog 1 (Q9GZT9 whole entry): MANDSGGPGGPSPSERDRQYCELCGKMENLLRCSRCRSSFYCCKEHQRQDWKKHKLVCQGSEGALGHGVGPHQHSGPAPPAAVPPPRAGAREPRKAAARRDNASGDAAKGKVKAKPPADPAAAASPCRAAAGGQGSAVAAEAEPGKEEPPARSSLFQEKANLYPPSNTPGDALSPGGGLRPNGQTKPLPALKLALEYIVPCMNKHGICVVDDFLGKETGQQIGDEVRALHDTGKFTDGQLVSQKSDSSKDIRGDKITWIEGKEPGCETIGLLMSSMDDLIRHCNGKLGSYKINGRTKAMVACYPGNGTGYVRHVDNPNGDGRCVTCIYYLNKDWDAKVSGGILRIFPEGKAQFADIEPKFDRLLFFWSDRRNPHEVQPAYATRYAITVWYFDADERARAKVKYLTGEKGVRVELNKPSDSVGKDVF
smiles,measurement,value
Cc1cccc(-c2ccc3nc(C(=O)NCC(=O)O)cn3c2)c1,IC50,> 100 µM
